Reference: PubChem BioAssay (NCI)
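1) Cells in 96-well plates. 2) Compound, 48 h, 5 concentrations. 3) Linear interpolation between surrounding doses. 4) Unreached endpoint = highest concentration. GI50 = concentration required for 50% inhibition of growth. Definition used: TGI = concentration required for complete inhibition of growth.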

Columns and labels:
Experiment in all cases: NCI tumour cell line growth inhibition, 48 h
[1] = test system: SF-539 CNS
[2] = test system: HOP-62 NSCLC
[3] = test system: RXF 393 renal
[4] = test system: UO-31 renal
[5] = test system: CCRF-CEM leukemia
[6] = test system: PC-3 prostate
[7] = test system: 786-0 renal
[8] = test system: SF-295 CNS
[9] = test system: HCC-2998 colon
[10] = test system: COLO 205 colon
[11] = test system: HT29 colon
[12] = test system: TK-10 renal
[13] = test system: BT-549 breast
[14] = test system: SK-OV-3 ovarian
[15] = test system: SF-268 CNS
[16] = test system: UACC-62 melanoma
[17] = test system: OVCAR-5 ovarian
[18] = test system: NCI-H23 lung
[19] = test system: K-562 leukemia
[20] = test system: UACC-257 melanoma
[21] = test system: MALME-3M melanoma
[22] = test system: A549 NSCLC
[23] = test system: U251 CNS
[24] = test system: MOLT-4 leukemia
[25] = test system: M14 melanoma
[26] = test system: T-47D breast
[27] = test system: NCI-H522 lung
[28] = test system: NCI-H226 lung
[29] = test system: SK-MEL-28 melanoma
[30] = test system: NCI/ADR-RES ovarian
[31] = test system: SN12C renal
[32] = test system: OVCAR-8 ovarian
[33] = test system: A498 renal
[34] = test system: SW-620 colon
[35] = test system: ACHN renal
[36] = test system: KM12 colon
[37] = test system: HOP-92 NSCLC
[38] = test system: IGROV1 ovarian
[39] = test system: EKVX NSCLC
[40] = test system: MCF7 breast
[41] = test system: RPMI-8226 leukemia
[42] = test system: CAKI-1 renal
[43] = test system: DU-145 prostate
[44] = test system: SNB-75 CNS
[45] = test system: LOX IMVI melanoma
[46] = test system: HCT-15 colon
[47] = test system: SK-MEL-2 melanoma
[48] = test system: SR leukemia
[49] = test system: OVCAR-4 ovarian
[50] = test system: HL-60(TB) leukemia
[51] = test system: HS 578T breast
[52] = test system: SNB-19 CNS
[53] = test system: MDA-MB-231 breast
[54] = test system: SK-MEL-5 melanoma
[55] = test system: MDA-MB-435
[56] = test system: HCT-116 colon
[57] = test system: NCI-H460 lung

O=C(NNc1nc2cc(F)c(F)cc2n2c(CN3CC4CNCC4C3)ccc12)c1ncccn1 (stereo not drawn)
GI50 [1]: 2.76 µM | TGI [1]: 9.5 µM | GI50 [2]: 1.04 µM | TGI [2]: 11.2 µM | GI50 [3]: 2 µM | TGI [3]: 9.33 µM | GI50 [4]: 0.448 µM | TGI [4]: 10.1 µM | GI50 [5]: 1.86 µM | TGI [5]: > 100 µM | GI50 [6]: 3.22 µM | TGI [6]: 39.6 µM | GI50 [7]: 2.18 µM | TGI [7]: 9.02 µM | GI50 [8]: 0.847 µM | TGI [8]: 12.5 µM | GI50 [9]: 4.14 µM | TGI [9]: 19.3 µM | GI50 [10]: 2.81 µM | TGI [10]: 11.8 µM | GI50 [11]: 3.76 µM | TGI [11]: 32.2 µM | GI50 [12]: 7.89 µM | TGI [12]: 29.7 µM | GI50 [13]: 4.47 µM | TGI [13]: 18.7 µM | GI50 [14]: 1.96 µM | TGI [14]: 14.8 µM | GI50 [15]: 1.87 µM | TGI [15]: 14.8 µM | GI50 [16]: 2.57 µM | TGI [16]: 11.6 µM | GI50 [17]: 5.08 µM | TGI [17]: 25.4 µM | GI50 [18]: 3.48 µM | TGI [18]: 16.2 µM | GI50 [19]: 2.4 µM | TGI [19]: 74.5 µM | GI50 [20]: 2.8 µM | TGI [20]: 9.36 µM | GI50 [21]: 2.53 µM | GI50 [22]: 2.82 µM | TGI [22]: 13.2 µM | GI50 [23]: 1.9 µM | TGI [23]: 14.6 µM | GI50 [24]: 3.14 µM | TGI [24]: > 100 µM | GI50 [25]: 1.14 µM | TGI [25]: 9.42 µM | GI50 [26]: 3.08 µM | TGI [26]: 14.2 µM | GI50 [27]: 4.37 µM | TGI [27]: 21.2 µM | GI50 [28]: 2.77 µM | TGI [28]: 18.1 µM | GI50 [29]: 2.83 µM | TGI [29]: 14.8 µM | GI50 [30]: 5.29 µM | TGI [30]: 22.7 µM | GI50 [31]: 3.06 µM | TGI [31]: 13.8 µM | GI50 [32]: 2.18 µM | TGI [32]: 12.8 µM | GI50 [33]: 2.36 µM | TGI [33]: 8.64 µM | GI50 [34]: 2.48 µM | TGI [34]: 16.1 µM | GI50 [35]: 0.512 µM | TGI [35]: 10.7 µM | GI50 [36]: 3.18 µM | TGI [36]: 22.8 µM | GI50 [37]: 6.46 µM | TGI [37]: 28.3 µM | GI50 [38]: 1.85 µM | TGI [38]: 12.3 µM | GI50 [39]: 1.79 µM | TGI [39]: 17.7 µM | GI50 [40]: 3.07 µM | TGI [40]: 14 µM | GI50 [41]: 3.69 µM | TGI [41]: 55.7 µM | GI50 [42]: 0.756 µM | TGI [42]: 11.9 µM | GI50 [43]: 2.31 µM | TGI [43]: 16.1 µM | GI50 [44]: 2.19 µM | TGI [44]: 13.6 µM | GI50 [45]: 1.06 µM | TGI [45]: 5.21 µM | GI50 [46]: 0.526 µM | TGI [46]: 25.1 µM | GI50 [47]: 4.23 µM | TGI [47]: 20.7 µM | GI50 [48]: 1.53 µM | TGI [48]: > 100 µM | GI50 [49]: 2.8 µM | TGI [49]: 17.9 µM | GI50 [50]: 2.62 µM | TGI [50]: 10.7 µM | GI50 [51]: 5.98 µM | TGI [51]: 37 µM | GI50 [52]: 3.53 µM | TGI [52]: 29.1 µM | GI50 [53]: 3.64 µM | TGI [53]: 21 µM | GI50 [54]: 1.65 µM | TGI [54]: 4.4 µM | GI50 [55]: 3.85 µM | TGI [55]: 16.4 µM | GI50 [56]: 1.6 µM | TGI [56]: 14.5 µM | GI50 [57]: 0.567 µM | TGI [57]: 6.99 µM
